Like-named read-outs stand apart in the source and are kept apart here.
Tests used:
[1] = system: Respiratory syncytial virus; assay: Broad spectrum antiviral activity, HeLa cells; format: cell-based; conditions: human respiratory syncytial virus
Para-influenza-3 virus = assay: organism not typed; format: cell-based; conditions: vero cells
Feline herpes virus = assay: Broad spectrum antiviral activity, CRFK cells; format: cell-based
[2] = system: pseudotype virus pNL4.3ΔEnvLuc-HXB2; conditions: multi-dosing time assay
Hepatitis C virus (Jc1) = assay: Broad spectrum antiviral activity, Huh 7-D cells; format: cell-based
HIV-1 = conditions: read-out: IC50 HIV-1 replication; ref Clouser et al. [24]; cited from earlier work
[3] = system: non-B HIV-1 primary clinical isolate #2; assay: microbe, parasite or virus in culture; conditions: Human immunodeficiency virus 1, PBMC, 168 h, read-out: IC50 non-B HIV-1 primary clinical isolate (second named)
Human corona virus = assay: Broad spectrum antiviral activity, HEL cells; format: cell-based
sindbisvirus = assay: Broad spectrum antiviral activity, vero cells; format: cell-based
[4] = system: Vesicular stomatitis virus; assay: microbe, parasite or virus in culture; format: cell-based
[5] = system: Influenza A/H3N2 A/HK/7/87; assay: Broad spectrum antiviral activity, MDCK cells; format: cell-based; conditions: Influenza A virus
HIV-1 IIIB = assay: microbe, parasite or virus in culture; conditions: Human immunodeficiency virus 1, IIIB, PBMC, 168 h, read-out: IC50 HIV-1 IIIB
[6] = system: Herpes simplex virus-2 (G); assay: Broad spectrum antiviral activity, HEL cells; format: cell-based; conditions: Human alphaherpesvirus 2, HEL
Influenza B B/Ned/537/05 = assay: microbe, parasite or virus in culture; format: cell-based; conditions: MDCK cells
CXCR4 = molecular target: T1, CXCR4 (Homo sapiens, UniProt P61073); assay: Binding competition with anti-CXCR4 antibody 12G5; conditions: anti-CXCR4 antibody 12G5, U373-CD4-CXCR4 cells
T1 construct: host or cells: U373-CD4-CXCR4 cells

[7] = system: non-B HIV-1 primary clinical isolate #1; assay: microbe, parasite or virus in culture; conditions: Human immunodeficiency virus 1, PBMC, 168 h, read-out: IC50 non-B HIV-1 primary clinical isolate (first named)
HeLa cells = system: HeLa cells
Procedure: Dual chamber transmission assay was performed as previously described. HeLa cells were seeded into an upper chamber of a transwell plate (Sigma-Aldrich, Liège, Belgium), while TZM-bl cells were seeded in the lower chamber. Trans Epithelial Electric Resistance (TEER) was measured using Millicell-ERS Volt-Ohm Meter. HIV-1 ADA-M (200 pg) and drugs were added to the upper chamber after 4 days when TEER reached 150 Ohm/cm^2. 24 h after infection luciferase value of TZM-bl cells lysate was measured using the Luciferase System Kit and the POLARstar Omega Plate Reader. Data were analyzed using GraphPrism. The HIV-1 DC-SIGN transmission assay was performed as previously described.

T1 sequence (P61073 whole entry): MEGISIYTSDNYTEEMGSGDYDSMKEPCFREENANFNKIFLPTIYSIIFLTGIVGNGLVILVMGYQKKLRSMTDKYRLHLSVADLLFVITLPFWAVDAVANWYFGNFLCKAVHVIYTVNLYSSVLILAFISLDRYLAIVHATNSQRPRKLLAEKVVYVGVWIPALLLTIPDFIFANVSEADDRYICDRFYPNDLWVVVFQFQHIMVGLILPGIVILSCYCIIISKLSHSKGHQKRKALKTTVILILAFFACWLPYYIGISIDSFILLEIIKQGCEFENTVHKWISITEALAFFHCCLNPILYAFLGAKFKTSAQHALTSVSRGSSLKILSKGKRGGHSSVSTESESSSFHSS

Compound `Oc1cc(O)cc(/C=C/c2ccc(O)c(O)c2)c1` [piceatannol, trans-3,3′,4,5′-tetrahydroxystilbene] has an IC50 [1] of over 100 µM, an IC50 (Para-influenza-3 virus) of over 100 µM and an IC50 (Feline herpes virus) of over 100 µM. For the same compound, the “Inhibitory effect when added after infection” value ([2]; 2 h after spinoculation (post-infection)) was “did not find any effect”, the “Inhibitory effect when pre-incubated with cells” value ([2]; 2 h pre-incubation on cells, HXB2 and BAL pseudotypes) was “inhibited HIV-1 infection at high concentration” and the “Inhibitory effect when pre-incubated with the virus” value ([2]; 2 h pre-incubation on virus, HXB2 and BAL pseudotypes) was “not pre-incubated with the virus”. For the same compound, the IC50 (Hepatitis C virus (Jc1)) was over 100 µM, the IC50 (HIV-1) was 21.4 µM and the IC50 [3] was 8.04 ± 3.07 µM. For the same compound, the IC50 (Human corona virus) was over 100 µM, the IC50 (sindbisvirus) was over 100 µM and the IC50 [4] was 79.2 ± 17 µM. The IC50 ([4]; Vesicular stomatitis virus, U-87 MG) was 79.2 ± 17.2 µM, the IC50 [5] was over 100 µM and the IC50 (HIV-1 IIIB) was 24.2 ± 7.13 µM. For the same compound, the IC50 [6] was about 45 µM, the IC50 (Influenza B B/Ned/537/05) was over 100 µM and the “Inhibition of CXCR4 binding” value (CXCR4) was “neither CE nor piceatannol did”. The IC50 [7] was 37.7 ± 12.5 µM and the “Effect on confluence layer's TEER and epithelial cells viability” value (HeLa cells) was “without affecting”.

— paper PMC8126241, “Active Components from Cassia abbreviata Prevent HIV-1 Entry by Distinct Mechanisms of Action” (International Journal of Molecular Sciences, 2021)
